Measurements reported in US7097996B2, “Methods of screening test compounds using GADD34L, an eIF2α-specific phosphatase subunit” (New York University, priority 2002, dated 2006).
Read-outs that look alike come from different tables or passages of the source. d = 2'-deoxy (DNA); r = 2'-OH (RNA)

Columns and labels:
CHOP::GFP reporter = CHOP::GFP reporter expression by FACS in CHOP::GFP CHO cells; type: cell-based, Chinese Hamster
HT22 cells = assay: HT22 cell survival (MTT) after toxic glutamate exposure; type: cell-based; conditions: HT22 cells preconditioned (70 μM 22P19 for 24 or 48 h, or siRNA transfection), then 5 mM or 10 mM glutamate for 18 hours
Protocol: FIG. 6: Inhibition of endogenous GADD34L protects cells against oxidative toxicity. The bar graphs show percent survival of HT22 cells following exposure to toxic amounts of glutamate. HT22 cells were treated with 70 μM 22P19 for 24 or 48 h (top panel), or left untransfected (NTx), mock transfected, transfected with GADD34L siRNA, or transfected with control or CD2 siRNA (bottom panel), and then exposed to the indicated concentrations of glutamate for 18 hours.
In order to determine whether this preconditioning is protective against subsequent cell stress, cell survival rates of HT22 cells following toxic glutamate exposure were measured, where those HT22 cells had been preconditioned by 22P19- or RNAi-mediated inhibition of GADD34L (see FIG. 6).
For this assay, HT22 cells were either treated with 70 μM 22P19 for 24 or 48 h, or transfected with GADD34L siRNA or control CD2 siRNA, and then exposed to 0 mM, 5 mM, or 10 mM glutamate for 18 hours.

[1] = tested on: CHOP protein and phosphorylated eIF2α in CHO cells; type: cell-based, Chinese Hamster
[2] = parental CHO cells, 1.75 μg/mL tunicamycin or 50 μM arsenite

For “GADD34L siRNA: complementary double stranded RNA oligonucleotides (SEQ ID NO: 9 and 10) targeting GADD34L mRNA, purchased from Dharmacon (chain 1 GGGAUGGAUGCAGGUUCCATT; chain 2 UGGAACCUGCAUCCAUCCCTT; sugars from the 5' end r19 d2, backbone not given here)”, the “CHOP::GFP expression in cells not subject to stress” value (CHOP::GFP reporter; CHO CHOP::GFP cells harvested 16, 24 or 44 hours after transfection) was “activates CHOP::GFP expression” and the “cell survival following glutamate treatment” value (HT22 cells) was “substantially improved cell survival”.

With arsenite the CHOP protein level [1] was “strong induction of CHOP protein”, the “phosphorylated eIF2α level” value [1] was “increase in phosphorylated eIF2α levels” and the “CHOP::GFP reporter expression” value (CHOP::GFP reporter) was “substantially activated”.

In the case of tunicamycin, the CHOP protein level [1, 2] is reported as “strong induction of CHOP protein”, the “phosphorylated eIF2α level” value [1, 2] is reported as “increase in phosphorylated eIF2α levels” and the “CHOP::GFP reporter expression” value (CHOP::GFP reporter; parental CHO cells, 8 hours, 1.75 μg/mL tunicamycin or 50 μM arsenite) is reported as “substantially activated”.
